Measured values as given in patent US20260130933A1, “PHARMACEUTICAL COMPOSITION FOR PREVENTION OR TREATMENT OF NEPHROPATHY AND/OR DIABETES MELLITUS, COMPRISING ENAVOGLIFLOZIN” (DAEWOONG PHARMACEUTICAL CO., LTD., priority 2022, published 2026).

Assay: Example 1: phase 3 trial, enavogliflozin 0.3 mg once a day as monotherapy vs placebo for 24 weeks in patients with type 2 diabetes (HbA1c, FPG, C-peptide, body weight, lipids, blood pressure, HOMA, UACR, UGCR, adiponectin, leptin, safety)
Assay type: in vivo, human
Method: When a subject voluntarily gave written consent to participate in this clinical trial, a screening test was conducted. […] However, when the administration of a hypoglycemic agent was interrupted before the clinical trial Visit 1 (screening), at least an 8-week washout period, including the discontinuation period, was required, and during this period, a stable diet and exercise program was followed. Naïve patients were screened without a separate washout period, and the criteria for naïve patients were defined as patients who had not been administered hypoglycemic agents within 24 weeks prior to the date of obtaining written consent. […] In addition, they were instructed to maintain regular exercise and dietary control starting from 8 weeks prior to screening without changing their daily life patterns during the clinical trial period.

## OC[C@H]1O[C@@H](c2cc(Cc3ccc(C4CC4)cc3)c(Cl)c3c2CCO3)[C@H](O)[C@@H](O)[C@@H]1O [Enavogliflozin, (2S,3R,4R,5S,6R)-2-(7-chloro-6 (4-cyclopropylbenzyl)-2,3-dihydrobenzofuran-4-yl)-6-(hydroxymethyl)tetrahydro-2H-pyran-3,4,5-triol]
Week 18
  HbA1c, Mean (SD): 6.88(0.54) %
  LDL-C change from baseline, LS mean: -0.32 mg/dL
  LDL-C change from baseline, Mean: 1.69 mg/dL
  LDL-C, Mean: 97.16 mg/dL
  Subjects achieving HbA1c target of <6.5%: 24(29.27) %
  Subjects achieving HbA1c target of <7%: 47(57.32) %
  Subjects achieving therapeutic glycemic response (HbA1c change >0.5% or HbA1c<7%): 60(73.17) %
  Systolic blood pressure, Mean: 121.63 mmHg
  body weight change from baseline, LS mean: -3.42 kg
  body weight change from baseline, Mean: -3.44 kg
  diastolic blood pressure change from baseline, LS mean: −4.09 mmHg
  diastolic blood pressure change from baseline, Mean: −3.63 mmHg
  fasting C-peptide, Mean (SD): 0.65 ng/mL
  systolic blood pressure change from baseline, LS mean: −6.56 mmHg
  systolic blood pressure change from baseline, Mean: −6.22 mmHg
  total cholesterol change from baseline, LS mean: 6.45 mg/dL
  total cholesterol change from baseline, Mean: 8.40 mg/dL
  total cholesterol, Mean: 169.82 mg/dL
  triglycerides change from baseline, LS mean: -8.82 mg/dL
  triglycerides change from baseline, Mean: -4.14 mg/dL
  triglycerides, Mean: 113.30 mg/dL
Week 18, vs placebo
  FPG change from baseline, LS mean difference: -33.40 mg/dL
  HDL-C change from baseline, LS mean difference: 2.69 mg/dL
  HOMA-IR change from baseline, LS mean difference: −1.49
  HOMA-β change from baseline, LS mean difference: 22.40
  HbA1c change from baseline, LS mean difference: −0.79 % p
  LDL-C change from baseline, LS mean difference: -2.35 mg/dL
  Odds ratio for achieving HbA1c<6.5%: 5.58
  Odds ratio for achieving HbA1c<7%: 4.85
  Odds ratio for achieving therapeutic response: 7.45
  UACR change from baseline, LS mean difference: -13.39 g/kg
  UGCR change from baseline, LS mean difference: 47.66 mg/mg
  adiponectin change from baseline, LS mean difference: 1.04 µg/mL
  body weight change from baseline, LS mean difference: -2.37 kg
  diastolic blood pressure change from baseline, LS mean difference: −1.90 mmHg
  fasting C-peptide change from baseline, LS mean difference: -0.11 ng/mL
  leptin change from baseline, LS mean difference: -2.36 ng/mL
  systolic blood pressure change from baseline, LS mean difference: −3.36 mmHg
  total cholesterol change from baseline, LS mean difference: -0.99 mg/dL
  triglycerides change from baseline, LS mean difference: -17.74 mg/dL
Week 24
  Body weight, Mean: 65.28 kg
  Diastolic blood pressure, Mean: 72.68 mmHg
  FPG change from baseline, LS mean (SE): −31.66(3.68) mg/dL
  FPG change from baseline, Mean (SD): −30.00(20.73) mg/dL
  FPG, Mean (SD): 111.00(14.56) mg/dL
  HDL-C change from baseline, LS mean: 4.39 mg/dL
  HDL-C change from baseline, Mean: 4.13 mg/dL
  HDL-C, Mean: 56.05 mg/dL
  HbA1c change from baseline, LS mean (SE): −0.88(0.10) % p
  HbA1c change from baseline, Mean (SD): −0.84(0.66) % p
  HbA1c, Mean (SD): 6.80(0.59) %
  LDL-C change from baseline, LS mean: -2.92 mg/dL
  LDL-C change from baseline, Mean: -1.03 mg/dL
  LDL-C, Mean: 94.44 mg/dL
  Subjects achieving HbA1c target of <6.5%: 29(35.37) %
  Subjects achieving HbA1c target of <7%: 58(70.73) %
  Subjects achieving therapeutic glycemic response (HbA1c change >0.5% or HbA1c<7%): 68(82.93) %
  Systolic blood pressure, Mean: 121.29 mmHg
  body weight change from baseline, LS mean: -3.47 kg
  body weight change from baseline, Mean: -3.48 kg
  diastolic blood pressure change from baseline, LS mean: −3.92 mmHg
  diastolic blood pressure change from baseline, Mean: −3.55 mmHg
  fasting C-peptide, Mean (SD): 0.64 ng/mL
  systolic blood pressure change from baseline, LS mean: −7.27 mmHg
  systolic blood pressure change from baseline, Mean: −6.55 mmHg
  total cholesterol change from baseline, LS mean: 4.84 mg/dL
  total cholesterol change from baseline, Mean: 6.58 mg/dL
  total cholesterol, Mean: 168.00 mg/dL
  triglycerides change from baseline, LS mean: -0.08 mg/dL
  triglycerides change from baseline, Mean: 1.95 mg/dL
  triglycerides, Mean: 119.39 mg/dL
Week 24, vs placebo
  FPG change from baseline, LS mean difference: -40.08 mg/dL
  HDL-C change from baseline, LS mean difference: 4.05 mg/dL
  HOMA-IR change from baseline, LS mean difference: −1.94
  HOMA-β change from baseline, LS mean difference: 5.88
  HbA1c change from baseline, LS mean difference: −0.99 % p
  LDL-C change from baseline, LS mean difference: -6.91 mg/dL
  Odds ratio for achieving HbA1c<6.5%: 12.10
  Odds ratio for achieving HbA1c<7%: 9.08
  Odds ratio for achieving therapeutic response: 12.98
  UACR change from baseline, LS mean difference: -13.92 g/kg
  UGCR change from baseline, LS mean difference: 47.36 mg/mg
  adiponectin change from baseline, LS mean difference: 0.98 µg/mL
  body weight change from baseline, LS mean difference: -2.47 kg
  diastolic blood pressure change from baseline, LS mean difference: −3.12 mmHg
  fasting C-peptide change from baseline, LS mean difference: -0.13 ng/mL
  leptin change from baseline, LS mean difference: -2.99 ng/mL
  systolic blood pressure change from baseline, LS mean difference: −5.75 mmHg
  total cholesterol change from baseline, LS mean difference: -6.40 mg/dL
  triglycerides change from baseline, LS mean difference: -28.56 mg/dL
